Test system: 941728-121-R-J1-PDC complex spheroid viability
Assay: Anticancer human tumor 941728-121-R-J1-PDC patient-derived lung adenocarcinoma cell line growth inhibition [RAS]
Details: for IC50: curve of first compound; for viability, T/C: stronger effect = lower value
Summary of the method: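 Multi-cell-type spheroids: tumor cells plus HUVEC endothelial cells and mesenchymal stem cells. RAS-pathway inhibitors were combined with targeted agents, each dosed in half-log steps down from clinical Cmax, or from 10 microM when Cmax was unknown.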

[1] = second compound 0.00316 µM, first compound 0.0316 µM
[2] = second compound 0.00316 µM, first compound 0.1 µM
[3] = second compound 0.00316 µM, first compound 0.316 µM
[4] = second compound 0.00316 µM, first compound 1 µM
[5] = second compound 0.01 µM, first compound 0.0316 µM
[6] = second compound 0.01 µM, first compound 0.1 µM
[7] = second compound 0.01 µM, first compound 0.316 µM
[8] = second compound 0.01 µM, first compound 1 µM
[9] = second compound 0.0316 µM, first compound 0.0316 µM
[10] = second compound 0.0316 µM, first compound 0.1 µM
[11] = second compound 0.0316 µM, first compound 0.316 µM
[12] = second compound 0.0316 µM, first compound 1 µM
[13] = second compound 0.1 µM, first compound 0.0316 µM
[14] = second compound 0.1 µM, first compound 0.1 µM
[15] = second compound 0.1 µM, first compound 0.316 µM
[16] = second compound 0.1 µM, first compound 1 µM
[17] = second compound 0.316 µM, first compound 0.0316 µM
[18] = second compound 0.316 µM, first compound 0.1 µM
[19] = second compound 0.316 µM, first compound 0.316 µM
[20] = second compound 0.316 µM, first compound 1 µM
[21] = second compound 1 µM, first compound 0.0316 µM
[22] = second compound 1 µM, first compound 0.1 µM
[23] = second compound 1 µM, first compound 0.316 µM
[24] = second compound 1 µM, first compound 1 µM
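Also: spheroids exposed to compounds for 7 days before readout.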
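For viability, T/C in this document: 100% = DMSO vehicle control viability.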

Question: What does the source list for `CC(Nc1ccc2c(c1)OCCn1cc(N3C(=O)OCC3C(F)F)nc1-2)C(N)=O` (centres undefined) + C=CC(=O)N1CCN(c2nc(OCC3CCCN3C)nc3c(F)c(-c4nc(N)cc(C)c4C(F)(F)F)c(Cl)cc23)C(C)C1?
Answer: IC50 (second compound 0.00316 µM): < 0.0316 µM; IC50 (second compound 0.01 µM): < 0.0316 µM; IC50 (second compound 0.0316 µM): < 0.0316 µM; IC50 (second compound 0.1 µM): < 0.0316 µM; IC50 (second compound 0.316 µM): < 0.0316 µM; IC50 (second compound 1 µM): < 0.0316 µM; viability, T/C [1]: 16.6%; viability, T/C [2]: 15.2%; viability, T/C [3]: 15.4%; viability, T/C [4]: 15.4%; viability, T/C (second compound 0.00316 µM, first compound 3.16 µM): 12.8%; viability, T/C (second compound 0.00316 µM, first compound 10 µM): 12%; viability, T/C [5]: 17.7%; viability, T/C [6]: 14.9%; viability, T/C [7]: 15.2%; viability, T/C [8]: 12.9%; viability, T/C (second compound 0.01 µM, first compound 3.16 µM): 12.2%; viability, T/C (second compound 0.01 µM, first compound 10 µM): 10.5%; viability, T/C [9]: 19.2%; viability, T/C [10]: 14.6%; viability, T/C [11]: 13.4%; viability, T/C [12]: 12.9%; viability, T/C (second compound 0.0316 µM, first compound 3.16 µM): 10.7%; viability, T/C (second compound 0.0316 µM, first compound 10 µM): 10.8%; viability, T/C [13]: 18.3%; viability, T/C [14]: 15.3%; viability, T/C [15]: 12.8%; viability, T/C [16]: 13.8%; viability, T/C (second compound 0.1 µM, first compound 3.16 µM): 11.5%; viability, T/C (second compound 0.1 µM, first compound 10 µM): 10.8%; viability, T/C [17]: 17.5%; viability, T/C [18]: 15.3%; viability, T/C [19]: 13.4%; viability, T/C [20]: 15.1%; viability, T/C (second compound 0.316 µM, first compound 3.16 µM): 13.6%; viability, T/C (second compound 0.316 µM, first compound 10 µM): 11.6%; viability, T/C [21]: 14.9%; viability, T/C [22]: 15.7%; viability, T/C [23]: 14.3%; viability, T/C [24]: 13.4%; viability, T/C (second compound 1 µM, first compound 3.16 µM): 12.6%; viability, T/C (second compound 1 µM, first compound 10 µM): 11.8%

Question: How did the IC50 (second compound 0.00316 µM) turn out when `O=C(c1ccc(F)c(F)c1Nc1ccc(I)cc1F)N1CC(O)([C@@H]2CCCCN2)C1` + C=CC(=O)N1CCN(c2nc(OCC3CCCN3C)nc3c(F)c(-c4nc(N)cc(C)c4C(F)(F)F)c(Cl)cc23)C(C)C1 was run?
Answer: The IC50 was under 0.00316 µM.

Question: And the IC50 (second compound 0.01 µM)?
Answer: Its IC50 is under 0.00316 µM.

Question: And the IC50 (second compound 0.0316 µM)?
Answer: Its IC50 is under 0.00316 µM.

Question: What about the IC50 (second compound 0.1 µM) of the same compound?
Answer: The IC50 was under 0.00316 µM.

Question: And the IC50 (second compound 0.316 µM)?
Answer: Its IC50 is under 0.00316 µM.

Question: And the IC50 (second compound 1 µM)?
Answer: Its IC50 is under 0.00316 µM.

Question: What about the viability, T/C (second compound 0.00316 µM, first compound 0.00316 µM) of the same compound?
Answer: Its viability, T/C is 20.4%.

Question: What about the viability, T/C (second compound 0.00316 µM, first compound 0.01 µM) of the same compound?
Answer: The viability, T/C was 19.1%.

Question: What about the viability, T/C [1] of the same compound?
Answer: Its viability, T/C is 15.5%.

Question: And the viability, T/C [2]?
Answer: Its viability, T/C is 14.5%.

Question: And the viability, T/C [3]?
Answer: The viability, T/C was 12.7%.

Question: And the viability, T/C [4]?
Answer: The viability, T/C was 11.8%.

Question: What about the viability, T/C (second compound 0.01 µM, first compound 0.00316 µM) of the same compound?
Answer: The viability, T/C was 18.9%.

Question: And the viability, T/C (second compound 0.01 µM, first compound 0.01 µM)?
Answer: Its viability, T/C is 14.6%.

Question: What about the viability, T/C [5] of the same compound?
Answer: Its viability, T/C is 16.7%.

Question: What about the viability, T/C [6] of the same compound?
Answer: The viability, T/C was 12.9%.

Question: What about the viability, T/C [7] of the same compound?
Answer: The viability, T/C was 12.5%.

Question: What about the viability, T/C [8] of the same compound?
Answer: Its viability, T/C is 11.6%.

Question: And the viability, T/C (second compound 0.0316 µM, first compound 0.00316 µM)?
Answer: The viability, T/C was 16.1%.

Question: And the viability, T/C (second compound 0.0316 µM, first compound 0.01 µM)?
Answer: The viability, T/C was 13.8%.

Question: What about the viability, T/C [9] of the same compound?
Answer: Its viability, T/C is 13.3%.

Question: What about the viability, T/C [10] of the same compound?
Answer: The viability, T/C was 13.9%.

Question: And the viability, T/C [11]?
Answer: The viability, T/C was 13%.

Question: What about the viability, T/C [12] of the same compound?
Answer: Its viability, T/C is 12.1%.

Question: What about the viability, T/C (second compound 0.1 µM, first compound 0.00316 µM) of the same compound?
Answer: The viability, T/C was 22%.

Question: What about the viability, T/C (second compound 0.1 µM, first compound 0.01 µM) of the same compound?
Answer: Its viability, T/C is 13.5%.

Question: And the viability, T/C [13]?
Answer: The viability, T/C was 14.5%.

Question: What about the viability, T/C [14] of the same compound?
Answer: The viability, T/C was 13.8%.

Question: What about the viability, T/C [15] of the same compound?
Answer: Its viability, T/C is 12.8%.

Question: What about the viability, T/C [16] of the same compound?
Answer: The viability, T/C was 10.9%.

Question: And the viability, T/C (second compound 0.316 µM, first compound 0.00316 µM)?
Answer: Its viability, T/C is 15%.

Question: And the viability, T/C (second compound 0.316 µM, first compound 0.01 µM)?
Answer: The viability, T/C was 13.7%.

Question: And the viability, T/C [17]?
Answer: Its viability, T/C is 13.9%.

Question: What about the viability, T/C [18] of the same compound?
Answer: Its viability, T/C is 13.1%.

Question: And the viability, T/C [19]?
Answer: The viability, T/C was 12.4%.

Question: And the viability, T/C [20]?
Answer: Its viability, T/C is 13.5%.

Question: What about the viability, T/C (second compound 1 µM, first compound 0.00316 µM) of the same compound?
Answer: The viability, T/C was 16.4%.

Question: What about the viability, T/C (second compound 1 µM, first compound 0.01 µM) of the same compound?
Answer: Its viability, T/C is 17%.

Question: What about the viability, T/C [21] of the same compound?
Answer: Its viability, T/C is 15.3%.

Question: What about the viability, T/C [22] of the same compound?
Answer: Its viability, T/C is 13.2%.

Question: And the viability, T/C [23]?
Answer: Its viability, T/C is 13.2%.

Question: And the viability, T/C [24]?
Answer: Its viability, T/C is 11.1%.
